The experiment deals with CEM cells HIV-1 protection, formazan growth assay. Kind of experiment: NCI AIDS Antiviral Assay. The note with it: for IC50: measured here: growth of uninfected CEM cells. The procedure, abridged:
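Five concentrations of each compound were applied to infected and uninfected human CEM cells. Protection from HIV-1 was judged from growth measured with a soluble formazan assay.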

Drawing on PubChem BioAssay AID179 (DTP/NCI, 2004), this text covers EC50, IC50 and outcome for 70 compounds.

Molecules are shown by their SMILES. Active and inactive are the calls of the source.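 How the source made its calls: active means compounds giving half or more protection of infected cells from virus-caused growth loss, again on retest; inactive means the rest.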

The term EC50 denotes the concentration needed to bring the measured effect to its halfway point. Broadly, the IC50 is the point on the concentration scale where inhibition reaches its midpoint. For `O=C(Cn1cc(I)c(C(=O)NCC(O)CO)n1)NCC(O)CO` (stereo not given), the EC50 was more than 562 µM and the IC50 was more than 562 µM. Consider `O=C1O/C(=C(\Br)c2ccc([N+](=O)[O-])cc2)c2ccccc21`, for which the EC50 is more than 200 µM and the IC50 came out at 16.6 µM.

On to `CC12NC(=O)NC(=O)N1CCS2` (stereo not given), for which the result was inactive. On to `O=[N+]([O-])c1ccc(/C=C/c2ccc(/C=C/c3ccc([N+](=O)[O-])cc3[N+](=O)[O-])cc2)c([N+](=O)[O-])c1`, for which the result was inactive. Turning to `CO[C@](C(=O)OC[C@H]1[C@@H](COC(C)=O)[C@@H]2O[C@H]1c1cc3c(cc12)OCO3)(c1ccccc1)C(F)(F)F`, the EC50 is more than 200 µM and the IC50 was determined as 7.59 µM. The like results for `CNc1cc[nH]c(=O)c1NC(C)=O` were, in that order, more than 1380 µM and more than 1380 µM. With `CC(=O)Nc1cc(N=Nc2ccc(NC(=O)c3ccc(N)cc3)cc2C)c(S(=O)(=O)O)cc1N=Nc1ccc(N=Nc2ccc(S(=O)(=O)O)cc2)cc1`, the EC50 is 5.62 µM and the IC50 was more than 100 µM.

As for `Cc1ccc(Nc2cccc3c2C(=O)c2cccc(Nc4ccc(C)cc4S(=O)(=O)O)c2C3=O)c(S(=O)(=O)O)c1`, the result was active.

On to `O=c1nc2cc(-c3ccccc3)[nH]c2nn1-c1c(Cl)cc(Cl)cc1Cl`, for which the EC50 was more than 91.2 µM and the IC50 stood at 1.17 µM. The like results for `CCOP(=S)(OCC)Oc1ccc2c(c1)OC(=O)C1(Cl)C2(C)C2(Cl)C(=O)Oc3cc(OP(=S)(OCC)OCC)ccc3C12C` (stereo not given) were, in that order, more than 18.6 µM and more than 18.6 µM. As for `CN(C)C=C1C(Cl)=C(C=O)CC(C=O)=C1Cl`, the result was inactive. As for `COC[C@@H](N=CC(C)(C)C)C(C)C`, the EC50 was more than 200 µM and the IC50 is more than 200 µM. In the case of `N#CC1(C#N)C(c2ccc(C3C(C#N)(C#N)C3(C#N)C#N)cc2)C1(C#N)C#N`, the result was inactive. Take `COC(=O)CCn1c(N)nc2c1c(=O)n(C)c(=O)n2C`: the EC50 is more than 468 µM and the IC50 was more than 468 µM. Take `C/C(O)=C(/C=NC(=S)C(N)=S)C(=O)Nc1ccccc1`: the EC50 is more than 200 µM and the IC50 stood at 102 µM. Regarding `N#Cc1c(NN)nc(NN)c(C#N)c1-c1ccccc1`, the EC50 was more than 97.7 µM and the IC50 was determined as 50.1 µM. For `OCCN(CCO)c1ccc2c(-c3ccccc3)cc(N(CCO)CCO)nc2n1`, the EC50 was more than 200 µM and the IC50 came out at 120 µM. On to `Cc1ccc(Nc2nc3c(s2)C(=O)c2ccccc2C3=O)c(C)c1`, for which the EC50 was more than 30.2 µM and the IC50 came to 15.8 µM.

For `O=C(Cc1ccccc1)c1ccc2[nH]c(=O)oc2c1`, the EC50 is more than 200 µM and the IC50 was 102 µM.

For `CCCc1cc(=O)oc2c3c(c4c(c12)OC(C)(C)[C@H](O)[C@H]4O)O[C@@H](C)[C@H](C)[C@@H]3O`, the EC50 is more than 200 µM and the IC50 is 115 µM. Turning to `O=C(CSC(=S)N1CCOCC1)Nc1nc2c(s1)CCCC2`, the EC50 was more than 72.4 µM and the IC50 is 61.7 µM. The like results for `CCC1(O)C(=O)Nc2ccccc2C1=O` (stereo not given) were, in that order, more than 200 µM and more than 200 µM. On to `O=C(O)Cn1cnc2c(=O)[nH]c(Nc3ccccc3)nc21`, for which the EC50 is more than 200 µM and the IC50 is more than 200 µM. As for `Cc1oc(NC(=O)C(=O)O)c(C#N)c1C`, the EC50 was more than 200 µM and the IC50 is more than 200 µM. As for `COc1cc(OC)c2nccc(NCCCN(C)C)c2c1[N+](=O)[O-]`, the EC50 was more than 200 µM and the IC50 stood at 93.3 µM. `O=C1C(O)C(O)C(O)C(O)C1O` (stereo not given): the EC50 is more than 200 µM and the IC50 is more than 200 µM.

Turning to `CC(=O)Oc1c2ccsc2cc2ccsc12`, the EC50 was more than 75.9 µM and the IC50 was 3.31 µM.

As to `O=c1c2ccccc2oc2ccccc12.[Cl][Hg][Cl]`, the EC50 is more than 11.2 µM and the IC50 is more than 11.2 µM. `CCN(Cc1ccccc1)c1ccc(/C=C/c2nccc3ccccc23)cc1`: the EC50 is more than 14.5 µM and the IC50 was found to be 14.1 µM. The like results for `C(/C=C/Nc1ccc(-c2ccccc2)cc1)=Nc1ccc(-c2ccccc2)cc1` were, in that order, more than 200 µM and more than 200 µM. The like results for `FC(F)(Sc1ncc[nH]1)c1nc2ccccc2o1` were, in that order, 43.7 µM and more than 200 µM. The like results for `CNC(=O)N1CCN(C(=O)NC)CCN(C(=O)NC)CC1` were, in that order, more than 200 µM and more than 200 µM. In the case of `O=C(CC1=NC2NN(c3ccccc3)C(=O)C2=C1CC(=O)c1cccc([N+](=O)[O-])c1)c1cccc([N+](=O)[O-])c1` (stereo not given), the EC50 was more than 129 µM and the IC50 is more than 129 µM.

`Cc1ccc(C(=O)/C=C/c2ccc(N(C)C)cc2)cc1`: the EC50 is more than 7.59 µM and the IC50 is more than 7.59 µM.

On to `CC1(C)OC2OC3C4COC(SSC56OCC(O5)C5OC7OC(C)(C)OC7C5O6)(O4)OC3C2O1` (stereo not given), for which the EC50 is more than 200 µM and the IC50 stood at 26.3 µM. Take `CC1(C)CCC[C@]2(C)[C@H]3[C@H](C#N)c4cc(O)c(O)cc4O[C@@]3(C)CC[C@@H]12`: the EC50 was more than 200 µM and the IC50 amounted to 1.41 µM. The like results for `CC1CCC2N(C1)CC1C3(O)CC45OC6(O)C(O)CCC4(C)C6CCC5C3(O)CC(O)C1(O)C2(C)O` (stereo not given) were, in that order, more than 490 µM and more than 490 µM. `O=C(Nc1noc(-c2ccccc2)n1)c1ccccc1CNc1noc(-c2ccccc2)n1`: the EC50 was more than 200 µM and the IC50 is more than 200 µM. For the compound `Oc1ccc(/C=N/c2nccs2)c(O)c1`, the EC50 was more than 200 µM and the IC50 turned out to be 138 µM.

On to `CCOP(=O)(OCC)C(C)(CC)NC` (stereo not given), for which the EC50 is more than 200 µM and the IC50 is more than 200 µM. Regarding `C/C(=C\c1ccccc1)C(=O)c1c(C)cc(C)cc1C`, the EC50 is more than 38 µM and the IC50 was more than 38 µM. With `CN1CCN(CCCN2c3ccccc3Sc3ccc(Cl)cc32)CC1`, the EC50 was more than 200 µM and the IC50 was 3.72 µM. The like results for `CC(=NNC(=S)Nc1ccc(C)cc1)c1cccc(C(C)=NNC(=S)Nc2ccc(C)cc2)n1` were, in that order, more than 200 µM and 15.1 µM. For `O=c1c2cc([N+](=O)[O-])cnc2sn1-c1ccc(Br)cc1`, the EC50 is more than 200 µM and the IC50 was found to be 63.1 µM. With `O=C1CC23CCCCCCCCCCC2(C1)CC(=O)C3` (stereo not given), the outcome was inactive. On to `COCC(=O)[C@]1(O)Cc2c(O)c3c(c(O)c2[C@@H](OC2CC(N)C(O)C(C)O2)C1)C(=O)c1c(OC)cccc1C3=O` (stereo not given in full), for which the EC50 is more than 0.2 µM and the IC50 came to 0.0631 µM. The like results for `CC(=O)OC1(C)C2c3ccccc3C(c3ccccc32)C1(C)C` (stereo not given) were, in that order, more than 85.1 µM and more than 85.1 µM. On to `CC1COC(C)(C)P(=O)(c2ccccc2)C1` (stereo not given), for which the EC50 was more than 1050 µM and the IC50 was more than 1050 µM. With `C/C(N=NS(=O)(=O)c1ccccc1)=C1\C=CC=CN1O`, the result was inactive. As to `CCOc1ccc(NC(=O)C(=O)CC(=O)c2sc(NNC(C)=O)nc2C)cc1`, the EC50 was more than 44.7 µM and the IC50 is more than 44.7 µM. On to `O=[N+]([O-])C(=C(Sc1ccccc1)Sc1ccccc1)C(Cl)=C(Cl)Cl`, for which the result was inactive.

In the case of `O=c1ccc2c(cc3ccc4cccc5ccc2c3c45)o1`, the outcome was inactive. Take `CCOC(=O)C(C)(CCC(C)(C(=O)OCC)C(=O)OCC)C(=O)OCC`: the EC50 was more than 200 µM and the IC50 amounted to 75.9 µM. Regarding `OC1COC2CC(Nc3ccccn3)OC12` (stereo not given), the EC50 was more than 200 µM and the IC50 is more than 200 µM.

Consider `C=CCN(c1cc(OC)c2[nH]cc(C)c2c1[N+](=O)[O-])S(C)(=O)=O`, for which the EC50 is 97.7 µM and the IC50 was more than 100 µM. In the case of `O=C(/C=C/c1ccccc1)CC(=O)CCC(=O)Nc1ccc(Cl)cc1`, the outcome was inactive.

Take `Cc1nc(C(N)=S)sc1C(=O)CC(=O)C(=O)Nc1ccc(Br)cc1`: the EC50 was more than 85.1 µM and the IC50 is more than 85.1 µM.

Take `C[C@H]1COC2=C1C(=O)C(=O)c1c2ccc2c1CCCC2(C)C`: the EC50 is more than 200 µM and the IC50 came out at 8.91 µM.

As to `Fc1ccccc1CN1COc2c(cc(Cl)c3cccnc23)C1`, the EC50 is more than 200 µM and the IC50 was 3.09 µM.

Regarding `COc1ccc(C2(OC)Oc3cc(OC)ccc3C(=O)C2(O)O)cc1` (stereo not given), the EC50 is more than 200 µM and the IC50 was 10.7 µM. As for `Cc1nnc(N=Nc2c(O)[nH]c3ccccc23)n1N`, the EC50 was more than 70.8 µM and the IC50 came out at 58.9 µM.

For the compound `O=C1CSC(c2c[nH]c3ccccc23)N1c1ccc(Cl)cc1` (stereo not given), the EC50 was more than 110 µM and the IC50 was more than 110 µM.

Regarding `O=c1c2ccccc2sc2ccccc12`, the EC50 is more than 200 µM and the IC50 is more than 200 µM. Consider `CCCCCCCCC=CCCCCCCCC(=O)O[C@H](COC(=O)CCCCCCC/C=C\CCCCCCCC)COP(=O)(O)OCCNC(=O)CCC(=O)OCCC=C(c1cc(Cl)c(OC)c(C(=O)OC)c1)c1cc(Cl)c(OC)c(C(=O)OC)c1`, for which the EC50 is more than 100 µM and the IC50 worked out at 60.3 µM. The like results for `O=[N+]([O-])c1cccc(C=NC23CC4CC(CC(C4)C2)C3)c1` were, in that order, more than 66.1 µM and more than 66.1 µM. The like results for `CCOc1cnc([C@H]2CCC3[C@@H]4CC=C5C[C@@H](O)CC[C@]5(C)C4CC[C@@]32C)s1` (stereo not given in full) were, in that order, more than 61.7 µM and more than 61.7 µM. The like results for `O=C(OC1C2OC(=O)c3cc(O)c(O)c(O)c3Oc3cc4c(c(O)c3O)-c3c(cc(O)c(O)c3O)C(=O)OCC3OC(O)C(OC(=O)c5cc(O)c(O)c(O)c5Oc5cc6c(c(O)c5O)-c5c(cc(O)c(O)c5O)C(=O)OC1C(COC6=O)OC2O)C(OC(=O)c1cc(O)c(O)c(O)c1)C3OC4=O)c1cc(O)c(O)c(O)c1` (stereo not given) were, in that order, more than 69.2 µM and 34.7 µM. Take `O=C(c1ccc(Cl)cc1)N(C(=S)OCc1ccccn1)c1ccccc1`: the EC50 was more than 200 µM and the IC50 was 83.2 µM.

In the case of `N#Cc1c(N)c2c(c(-c3ccccc3)c1-c1ccccc1)C(=O)N(N)C2=O`, the EC50 was more than 200 µM and the IC50 was determined as 117 µM. The like results for `Cc1cc(C)c(SSc2nnnn2C)c(C)c1` were, in that order, more than 200 µM and 19.5 µM.
